For 2 compounds, solubility and elimination half-life results are on record in patent publication US20070264319A1, “Transdermal Antiemesis Delivery System, Method and Composition Therefor” (priority 2004, published 2007).

Each structure is given as a SMILES string. Where a name gives a salt, the structure may show the parent alone.

The conditions of data set [1]: water and normal saline at 20° C.; cited from earlier work.
For data set [2] the following is noted: typical oral dose of about 1 to about 2 mg twice daily; cited from earlier work.
Data set [3] is described as follows: Solubility of granisetron base in penetration enhancers. It counts as physicochemical. The settings on record: thermodynamic from solid. As for the experimental part:
The incorporation of granisetron base in various penetration enhancers and solvents was determined by incrementally adding small amounts of the drug to about 100 ml of liquid penetration enhancer, and agitating the liquid mixture until the drug was no longer incorporated (i.e., saturation) to provide an apparently saturated liquid mixture at an ambient room temperature in the range of about 20 to about 25° C. Each of the saturated liquid mixtures was agitated by inverting for about 24 hours at ambient room temperature, the solution was centrifuged and its supernatant was diluted in HPLC mobile phase and assayed by the HPLC method as described in Example 2.

As usually defined, the solubility is the dissolved amount per volume that the medium holds. With `CN1C2CCCC1CC(NC(=O)c1nn(C)c3ccccc13)C2` (centres unmarked) [Granisetron hydrochloride], the solubility entry in data set [1] was “soluble in water and normal saline”.
Turning to `CN1C2CCCC1CC(NC(=O)c1nn(C)c3ccccc13)C2` (centres unmarked) [Granisetron], the elimination half-life result in data set [2] is given as “about 7 hours”. Besides, the solubility at 24 h in data set [3] (oil or lipid, in Isopropyl myristate, about 20 to about 25° C.) was 5.46 µg/mL; in data set [3] (organic solvent or mixture, in BRIJ ® 30, about 20 to about 25° C.), 41.2 µg/mL; in data set [3] (organic solvent or mixture, in DDAIP (free base), about 20 to about 25° C.) it was 7.17 µg/mL; in data set [3] (organic solvent or mixture, in DGME (transcutol), about 20 to about 25° C.), 86.6 µg/mL; in data set [3] (organic solvent or mixture, in Limonene, about 20 to about 25° C.) it was 8.59 µg/mL; in data set [3] (organic solvent or mixture, in NMP, about 20 to about 25° C.), 196 µg/mL. For the same compound, the solubility at 24 h was 45.7 µg/mL in data set [3] (organic solvent or mixture, in PEG-400, ambient room temperature about 20 to about 25° C.); 31.7 µg/mL in data set [3] (organic solvent or mixture, in Propylene glycol, about 20 to about 25° C.); 32.9 µg/mL in data set [3] (organic solvent or mixture, in SPAN ® 20, about 20 to about 25° C.).
